We go through 2 compounds from article PMC5843546 (Nature, 2018).

One assay deals with DRD2 wild-type (Homo sapiens, UniProt P14416). As to the kind of experiment: biochemical.
Assay [1] has as its target T1, DRD2-T4L(Sf9) I122^3.40A/L375^6.37A/L379^6.41A (Homo sapiens, UniProt P14416, I122A/L375A/L379A).
T1 sequence (P14416 with tags, fused parts or gaps I122A/L375A/L379A): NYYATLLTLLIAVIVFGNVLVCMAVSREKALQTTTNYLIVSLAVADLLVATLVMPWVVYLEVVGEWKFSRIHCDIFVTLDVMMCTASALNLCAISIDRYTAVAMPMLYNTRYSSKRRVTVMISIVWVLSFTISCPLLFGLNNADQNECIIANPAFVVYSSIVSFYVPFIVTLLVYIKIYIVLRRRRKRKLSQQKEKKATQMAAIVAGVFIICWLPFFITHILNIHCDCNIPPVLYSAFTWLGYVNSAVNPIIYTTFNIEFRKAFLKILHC
As to the kind of experiment: biochemical.

For a further assay, the target named is DRD2 W100^EL1A (Homo sapiens, UniProt P14416, W100A). The note with it: DRD2 W100^EL1A vs wild-type.
The next assay addresses DRD2 F110^3.28A (Homo sapiens, UniProt P14416, F110A). The settings on record: DRD2 F110^3.28A vs wild-type.

Consider `O=c1[nH]c2cccc(N3CCN(Cc4cccc(-c5ccccc5)c4)CC3)c2o1` [Bifeprunox], for which the inhibition constant (Ki) at DRD2 wild-type (Ki) was 1.04 nM; at DRD2 wild-type (pKi), 0.302 nM; in assay [1] (Ki), 0.57 nM; in assay [1] (pKi) it was 0.562 nM.
For `CNc1cc(OC)c(C(=O)NC2CCN(Cc3ccccc3)C2C)cc1Cl` (stereo not drawn) [Nemonapride, nemonapride], the “ΔpKd (mutant-WT)” value at DRD2 W100^EL1A is −0.98; on DRD2 F110^3.28A, 0.08.
